PubChem BioAssay AID200 (DTP/NCI, 2004)
Several values for one entry are separate records, joined by “and”; a condition that tells them apart may be missing. Identical values can stand only once. Inconclusive results and toxic doses are left out.

Tested on: B6C3F1 mice, B16 melanoma ip, median survival T/C
Experiment: NCI In Vivo Anticancer Drug Screen. Data for tumor model B16 Melanoma (intraperitoneal) in B6C3F1 mice
Conditions: endpoint: median survival time, higher = longer survival
Protocol: The antitumor activity of compounds was measured in mice bearing transplantable tumors. Survival or tumor size were measured and the results are expressed as the measurement made in the treated group (T) divided by the measurement made in the vehicle treated control group (C). The tumor model used in this assay is B16 Melanoma (intraperitoneal) in B6C3F1 mice

[1] = dose: 12.5 mg/kg/injection, schedule: Q01DX009 (ip), vehicle: saline
[2] = dose: 50.0 mg/kg/injection, schedule: Q01DX009 (ip), vehicle: saline with Tween-80
[3] = dose: 100.0 mg/kg/injection, schedule: Q01DX009 (ip), vehicle: saline with Tween-80
[4] = dose: 200.0 mg/kg/injection, schedule: Q01DX009 (ip), vehicle: saline with Tween-80
[5] = dose: 400.0 mg/kg/injection, schedule: Q01DX009 (ip), vehicle: saline with Tween-80
[6] = dose: 3.12 mg/kg/injection, schedule: Q01DX009 (ip), vehicle: saline
[7] = dose: 6.25 mg/kg/injection, schedule: Q01DX009 (ip), vehicle: saline
[8] = dose: 25.0 mg/kg/injection, schedule: Q01DX009 (ip), vehicle: saline
[9] = dose: 12.5 mg/kg/injection, schedule: Q01DX009 (ip), vehicle: saline with Tween-80
[10] = dose: 25.0 mg/kg/injection, schedule: Q01DX009 (ip), vehicle: saline with Tween-80
[11] = dose: 100.0 mg/kg/injection, schedule: Q01DX009 (ip), vehicle: saline
[12] = dose: 100.0 mg/kg/injection, schedule: Q01DX009 (ip), vehicle: distilled water + alcohol
[13] = dose: 200.0 mg/kg/injection, schedule: Q01DX009 (ip), vehicle: distilled water + alcohol

CC1(C)N=C(N)N=C(N)N1c1ccc(F)c(C(F)(F)F)c1
T/C (dose: 0.37 mg/kg/injection, schedule: Q01DX009 (ip), vehicle: saline): 93 % of control | T/C (dose: 0.75 mg/kg/injection, schedule: Q01DX009 (ip), vehicle: saline): 96 % of control | T/C (dose: 1.5 mg/kg/injection, schedule: Q01DX009 (ip), vehicle: saline): 94 % of control | T/C (dose: 3.0 mg/kg/injection, schedule: Q01DX009 (ip), vehicle: saline): 99 % of control | T/C (dose: 6.0 mg/kg/injection, schedule: Q01DX009 (ip), vehicle: saline): 106 % of control | T/C (dose: 12.0 mg/kg/injection, schedule: Q01DX009 (ip), vehicle: saline): 113 % of control | T/C [1]: 120 % of control

CCOC(=O)NC(N)=O
T/C [2]: 101 % of control | T/C [3]: 117 % of control | T/C [4]: 102 % of control | T/C [5]: 105 % of control

C=C(C)CNC1=C(C)C(=O)C2=C(C1=O)[C@H](COC(N)=O)[C@]1(OC)[C@@H]3N[C@@H]3CN21
T/C (dose: 0.5 mg/kg/injection, schedule: Q01DX001 (ip), vehicle: distilled water + Tween-80): 122 % of control | T/C (dose: 4.0 mg/kg/injection, schedule: Q01DX001 (ip), vehicle: distilled water + Tween-80): 160 % of control | T/C (dose: 8.0 mg/kg/injection, schedule: Q01DX001 (ip), vehicle: distilled water + Tween-80): 186 % of control | T/C (dose: 16.0 mg/kg/injection, schedule: Q01DX001 (ip), vehicle: distilled water + Tween-80): 226 % of control

COc1cc(C2c3cc4c(cc3C(OC3CCCCO3)C3COC(=O)C23)OCO4)cc(OC)c1OC (stereo not drawn)
T/C (dose: 1.56 mg/kg/injection, schedule: Q01DX009 (ip), vehicle: Klucel (hydroxypropylcellulose) (HPC)): 93 % of control | T/C (dose: 3.12 mg/kg/injection, schedule: Q01DX009 (ip), vehicle: Klucel (hydroxypropylcellulose) (HPC)): 98 % of control

CC[N](CC)[Ge]([CH2]C)[CH2]C.CC[N](CC)[Ge]([CH2]C)[CH2]C
T/C (dose: 1.56 mg/kg/injection, schedule: Q01DX009 (ip), vehicle: saline): 106 % of control | T/C [6]: 103 % of control | T/C [7]: 103 % of control | T/C [1]: 107 % of control | T/C [8]: 108 % of control

O=C1CN(CN2CCOCC2)C(=O)CN1CN1CCOCC1
T/C [9]: 88 % of control | T/C [10]: 94 % of control | T/C [2]: 93 % of control | T/C [3]: 102 % of control | T/C [4]: 100 % of control

CC(C)n1cc2c(N)ncnc2n1
T/C [10]: 93 % of control | T/C [2]: 91 % of control | T/C [3]: 86 % of control

CCCC(=O)Nc1ncnc2c1ncn2C1OC2COP(=O)(O)OC2C1OC(=O)CCC (stereo not drawn)
T/C [1]: 102 % of control (2×) and 103 % of control | T/C [8]: 95 % of control and 100 % of control and 104 % of control | T/C (dose: 50.0 mg/kg/injection, schedule: Q01DX009 (ip), vehicle: saline): 93 % of control and 102 % of control (2×) | T/C [11]: 94 % of control and 101 % of control and 102 % of control | T/C (dose: 200.0 mg/kg/injection, schedule: Q01DX009 (ip), vehicle: saline): 112 % of control and 88 % of control and 100 % of control | T/C (dose: 400.0 mg/kg/injection, schedule: Q01DX009 (ip), vehicle: saline): 88 % of control and 94 % of control and 103 % of control

Cc1cc(Br)c2nsnc2c1[N+](=O)[O-]
T/C [10]: 95 % of control | T/C [2]: 95 % of control | T/C [3]: 103 % of control | T/C [4]: 90 % of control

O=C(O)Cc1cccc2c(=O)cc(-c3ccccc3)oc12
T/C (dose: 12.5 mg/kg/injection, schedule: Q01DX009 (ip), vehicle: suspension in saline): 109 % of control and 103 % of control | T/C (dose: 25.0 mg/kg/injection, schedule: Q01DX009 (ip), vehicle: suspension in saline): 115 % of control and 123 % of control | T/C (dose: 50.0 mg/kg/injection, schedule: Q01DX009 (ip), vehicle: suspension in saline): 172 % of control | T/C (dose: 100.0 mg/kg/injection, schedule: Q01DX009 (ip), vehicle: suspension in saline): 152 % of control and 163 % of control

COc1nc2c(=O)[nH]c(N)nc2n1C1OC(CO)C(O)C1O (stereo not drawn)
T/C [3]: 96 % of control | T/C [4]: 93 % of control | T/C [5]: 91 % of control

COc1cc2oc3c(C)c(=O)cc4oc(-c5ccccc5)cc(c2c2c1CCC(c1ccccc1)O2)c43 (stereo not drawn)
T/C (dose: 0.85 mg/kg/injection, schedule: Q01DX009 (ip), vehicle: Klucel (hydroxypropylcellulose) (HPC)): 105 % of control | T/C (dose: 1.75 mg/kg/injection, schedule: Q01DX009 (ip), vehicle: Klucel (hydroxypropylcellulose) (HPC)): 101 % of control | T/C (dose: 3.5 mg/kg/injection, schedule: Q01DX009 (ip), vehicle: Klucel (hydroxypropylcellulose) (HPC)): 103 % of control | T/C (dose: 7.0 mg/kg/injection, schedule: Q01DX009 (ip), vehicle: Klucel (hydroxypropylcellulose) (HPC)): 95 % of control and 106 % of control | T/C (dose: 14.0 mg/kg/injection, schedule: Q01DX009 (ip), vehicle: Klucel (hydroxypropylcellulose) (HPC)): 97 % of control and 104 % of control | T/C (dose: 28.0 mg/kg/injection, schedule: Q01DX009 (ip), vehicle: Klucel (hydroxypropylcellulose) (HPC)): 121 % of control

COc1ccc(C[C@@H]2NC[C@@H](O)[C@@H]2OC(C)=O)cc1
T/C [10]: 124 % of control | T/C (dose: 25.0 mg/kg/injection, schedule: Q04DX003 (ip), vehicle: saline with Tween-80): 112 % of control | T/C [2]: 120 % of control | T/C (dose: 50.0 mg/kg/injection, schedule: Q04DX003 (ip), vehicle: saline with Tween-80): 110 % of control | T/C (dose: 100.0 mg/kg/injection, schedule: Q04DX003 (ip), vehicle: saline with Tween-80): 114 % of control | T/C [4]: 120 % of control and 121 % of control | T/C (dose: 200.0 mg/kg/injection, schedule: Q04DX003 (ip), vehicle: saline with Tween-80): 112 % of control

NC(CCCNc1ccc(O)cc1)C(=O)O (stereo not drawn)
T/C (dose: 75.0 mg/kg/injection, schedule: Q01DX009 (ip), vehicle: saline): 122 % of control | T/C [11]: 98 % of control | T/C (dose: 150.0 mg/kg/injection, schedule: Q01DX009 (ip), vehicle: saline): 106 % of control

Cn1c2ccccc2c2ccc3c(c21)C(=O)C=CC3=O
T/C (dose: 6.25 mg/kg/injection, schedule: Q01DX009 (ip), vehicle: Klucel (hydroxypropylcellulose) (HPC)): 96 % of control | T/C (dose: 12.5 mg/kg/injection, schedule: Q01DX009 (ip), vehicle: Klucel (hydroxypropylcellulose) (HPC)): 107 % of control

CC(=O)NC(Cc1ccc(F)cc1)C(=O)O (stereo not drawn)
T/C [10]: 123 % of control | T/C [2]: 121 % of control | T/C [3]: 121 % of control | T/C [4]: 110 % of control | T/C [5]: 111 % of control | T/C (dose: 800.0 mg/kg/injection, schedule: Q01DX009 (ip), vehicle: saline with Tween-80): 121 % of control

CCOC(=O)N1CCN(CCCCCOc2ccccc2C2CCCCC2)CC1
T/C [9]: 108 % of control | T/C [10]: 96 % of control | T/C [2]: 87 % of control

CCOc1cc2c(cc1C(C)c1ccc(OC)cc1)OCO2 (stereo not drawn)
T/C (dose: 12.5 mg/kg/injection, schedule: Q01DX009 (ip), vehicle: distilled water + alcohol): 116 % of control | T/C (dose: 25.0 mg/kg/injection, schedule: Q01DX009 (ip), vehicle: distilled water + alcohol): 113 % of control | T/C (dose: 50.0 mg/kg/injection, schedule: Q01DX009 (ip), vehicle: distilled water + alcohol): 102 % of control | T/C [12]: 98 % of control | T/C [13]: 108 % of control

O=C(Cl)c1ccccc1S(=O)(=O)N(CCOc1ccccc1)c1ccccc1
T/C (dose: 50.0 mg/kg/injection, schedule: Q01DX009 (ip), vehicle: Klucel (hydroxypropylcellulose) (HPC)): 90 % of control | T/C (dose: 100.0 mg/kg/injection, schedule: Q01DX009 (ip), vehicle: Klucel (hydroxypropylcellulose) (HPC)): 94 % of control | T/C (dose: 200.0 mg/kg/injection, schedule: Q01DX009 (ip), vehicle: Klucel (hydroxypropylcellulose) (HPC)): 90 % of control

CC(C)(C)OC(=O)NC(Cc1c[nH]c2ccccc12)C(=O)O (stereo not drawn)
T/C [12]: 94 % of control | T/C [13]: 94 % of control

CC1CCOS(=O)O1 (stereo not drawn)
T/C (dose: 10.0 mg/kg/injection, schedule: Q01DX009 (ip), vehicle: saline): 104 % of control | T/C (dose: 20.0 mg/kg/injection, schedule: Q01DX009 (ip), vehicle: saline): 123 % of control | T/C (dose: 40.0 mg/kg/injection, schedule: Q01DX009 (ip), vehicle: saline): 110 % of control

CN1CCN(CCCN2c3ccccc3Sc3ccc(C(F)(F)F)cc32)CC1
T/C [6]: 100 % of control | T/C [7]: 106 % of control | T/C (dose: 8.0 mg/kg/injection, schedule: Q01DX009 (ip), vehicle: saline): 107 % of control | T/C [1]: 98 % of control | T/C (dose: 16.0 mg/kg/injection, schedule: Q01DX009 (ip), vehicle: saline): 93 % of control | T/C (dose: 32.0 mg/kg/injection, schedule: Q01DX009 (ip), vehicle: saline): 87 % of control
